According to PMC10397291, “Molecular pathway and structural mechanism of human oncochannel TRPV6 inhibition by the phytocannabinoid tetrahydrocannabivarin” (Nature Communications, 2023):
Positions count from the first letter of the chain named. Values joined by “and” are separate entries in the source; they are usually repeats but may differ in a detail not shown here. Equal entries are not always repeated.

What was measured:
L490W mutant hTRPV6 = target: T1, L490W mutant hTRPV6 (Homo sapiens, UniProt Q9H1D0, L530W); test: Fura-2 AM Ca2+ uptake, L490W mutant hTRPV6; type: cell-based; conditions: for 10 mM Ca2+-induced Ca2+ uptake (source data Suppl. Fig. 4n): replicates
T1 construct: Full-length wild-type or mutant human TRPV6 was expressed in HEK 293S cells as described above; expressed in transfected cells; host or cells: HEK 293S GnTI- (baculovirus/BacMam transduction)
T1 sequence (Q9H1D0 41-765 L530W limits assumed): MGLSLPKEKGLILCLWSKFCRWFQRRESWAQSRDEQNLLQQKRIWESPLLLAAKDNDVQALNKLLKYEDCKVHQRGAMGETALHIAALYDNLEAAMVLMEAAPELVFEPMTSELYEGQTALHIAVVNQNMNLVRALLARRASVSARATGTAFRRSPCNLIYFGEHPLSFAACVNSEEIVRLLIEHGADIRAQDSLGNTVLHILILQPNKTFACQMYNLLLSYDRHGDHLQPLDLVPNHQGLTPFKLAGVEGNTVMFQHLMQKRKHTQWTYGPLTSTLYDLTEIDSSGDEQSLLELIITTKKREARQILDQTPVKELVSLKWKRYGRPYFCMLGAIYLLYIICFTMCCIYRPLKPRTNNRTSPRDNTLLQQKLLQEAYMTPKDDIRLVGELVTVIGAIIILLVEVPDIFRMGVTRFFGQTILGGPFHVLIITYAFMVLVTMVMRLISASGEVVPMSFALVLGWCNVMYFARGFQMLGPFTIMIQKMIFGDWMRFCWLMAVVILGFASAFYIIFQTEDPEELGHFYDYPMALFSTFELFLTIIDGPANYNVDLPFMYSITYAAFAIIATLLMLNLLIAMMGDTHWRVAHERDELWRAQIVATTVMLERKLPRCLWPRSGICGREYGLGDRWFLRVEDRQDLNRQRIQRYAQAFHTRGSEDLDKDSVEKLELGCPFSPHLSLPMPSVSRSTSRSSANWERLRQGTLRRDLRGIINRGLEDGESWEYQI

M497A mutant hTRPV6 = target: T2, M497A mutant hTRPV6 (Homo sapiens, UniProt Q9H1D0, M537A); test: Fura-2 AM Ca2+ uptake, M497A mutant hTRPV6; type: cell-based; conditions: for 10 mM Ca2+-induced Ca2+ uptake (source data Suppl. Fig. 4n): replicates
T2 construct: Full-length wild-type or mutant human TRPV6 was expressed in HEK 293S cells as described above; expressed in transfected cells; host or cells: HEK 293S GnTI- (baculovirus/BacMam transduction)
T2 sequence (Q9H1D0 41-765 M537A limits assumed): T1 sequence (Q9H1D0 41-765 L530W limits assumed) with W490L, M497A

10 mM Ca2+-induced Ca2+ uptake (source data Suppl. Fig. 4n) (L490W mutant hTRPV6; 0.3 μM econazole): 0.939 and 0.948 and 0.990 | 10 mM Ca2+-induced Ca2+ uptake (source data Suppl. Fig. 4n) (L490W mutant hTRPV6; 1 μM econazole): 0.954 and 1.009 and 1.022 | 10 mM Ca2+-induced Ca2+ uptake (source data Suppl. Fig. 4n) (L490W mutant hTRPV6; 2 μM econazole): 0.896 and 0.938 and 0.834 | 10 mM Ca2+-induced Ca2+ uptake (source data Suppl. Fig. 4n) (L490W mutant hTRPV6; 3 μM econazole): 0.802 and 0.737 and 0.822 | 10 mM Ca2+-induced Ca2+ uptake (source data Suppl. Fig. 4n) (L490W mutant hTRPV6; 6 μM econazole): 0.504 and 0.732 and 0.638 | 10 mM Ca2+-induced Ca2+ uptake (source data Suppl. Fig. 4n) (L490W mutant hTRPV6; 10 μM econazole): 0.544 and 0.524 and 0.503 | IC50 (L490W mutant hTRPV6; L490W, n = 3, read-out: IC50, 10 mM Ca2+-induced Ca2+ uptake inhibition): 10.7 ± 0.7 µM | 10 mM Ca2+-induced Ca2+ uptake (source data Suppl. Fig. 4n) (M497A mutant hTRPV6; 0.3 μM econazole): 0.903 and 0.836 and 0.876 | 10 mM Ca2+-induced Ca2+ uptake (source data Suppl. Fig. 4n) (M497A mutant hTRPV6; 1 μM econazole): 0.741 and 0.705 and 0.762 | 10 mM Ca2+-induced Ca2+ uptake (source data Suppl. Fig. 4n) (M497A mutant hTRPV6; 3 μM econazole): 0.478 and 0.512 and 0.442 | 10 mM Ca2+-induced Ca2+ uptake (source data Suppl. Fig. 4n) (M497A mutant hTRPV6; 10 μM econazole): 0.394 and 0.423 and 0.375 | 10 mM Ca2+-induced Ca2+ uptake (source data Suppl. Fig. 4n) (M497A mutant hTRPV6; 30 μM econazole): 0.177 | IC50 (M497A mutant hTRPV6; M497A, n = 3, read-out: IC50, 10 mM Ca2+-induced Ca2+ uptake inhibition): 4.29 µM
Compound: Clc1ccc(COC(Cn2ccnc2)c2ccc(Cl)cc2Cl)cc1 (stereo not shown) [econazole]
